Reference: PubChem BioAssay (NCI)
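Growth conditions: 96-well plates. Treatment: test compound, 48 hours, 5 concentrations. Analysis: linear interpolation between bracketing concentrations; unreached endpoints set to highest concentration. TGI: concentration producing complete growth inhibition.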

What follows are molecules tested on HOP-92 NSCLC (assay: growth of human tumour cells (NCI), 48 h).
With `COc1ccc(/C(C)=N/NC(=S)N(C)C)c(O)c1` the TGI was 98.8 µM. For `CCCCCC(C(O)C#N)C(O)(C(F)(F)F)C(F)(F)F` (configuration not stated), the TGI was greater than 10 µM. `CC/C=C\C/C=C\C/C=C\CCCCCCCC(=O)OC(COC(=O)CCCCCCCCCCCCCCCCC)COC1OC(CO)C(O)C(O)C1O` (configuration not stated) was tested, and the TGI was greater than 25 µM. Work on `CC12CCC(C/C1=N\NC(N)=O)C2(C)C` (configuration not stated) yielded a TGI greater than 100 µM. `COC(=O)C1=C(C)N2[C@H](C(=O)O)CS[C@@]2(C)[C@H](C(=O)OC)[C@H]1c1cccc([N+](=O)[O-])c1` showed a TGI greater than 100 µM.

What follows are molecules tested on HS 578T breast (assay: growth of human tumour cells (NCI), 48 h).
With `CCN(CC)C(=S)SS(=O)(=O)c1ccc(C)cc1` the TGI was greater than 100 µM. Work on `C[C@@H]1C(=O)CC2(O)[C@@]13C[C@@H](OC(=O)[C@@H]3O)[C@@H](C)[C@@]21COC1=O` (some centres not stated) yielded a TGI greater than 100 µM. `COc1ccc(/C(C)=N/NC(=S)N(C)C)c(O)c1` gave a TGI greater than 100 µM. For `CCCCCC(C(O)C#N)C(O)(C(F)(F)F)C(F)(F)F` (configuration not stated), the TGI was greater than 10 µM. Molecule `CC/C=C\C/C=C\C/C=C\CCCCCCCC(=O)OC(COC(=O)CCCCCCCCCCCCCCCCC)COC1OC(CO)C(O)C(O)C1O` (configuration not stated) has a TGI of 18.5 µM. Molecule `CC12CCC(C/C1=N\NC(N)=O)C2(C)C` (configuration not stated) has a TGI greater than 100 µM. With `COC(=O)C1=C(C)N2[C@H](C(=O)O)CS[C@@]2(C)[C@H](C(=O)OC)[C@H]1c1cccc([N+](=O)[O-])c1` the TGI was greater than 100 µM.

These molecules were tested on HT29 colon (assay: growth of human tumour cells (NCI), 48 h).
Work on `CCN(CC)C(=S)SS(=O)(=O)c1ccc(C)cc1` yielded a TGI of 30.2 µM. For `C[C@@H]1C(=O)CC2(O)[C@@]13C[C@@H](OC(=O)[C@@H]3O)[C@@H](C)[C@@]21COC1=O` (some centres not stated), the TGI was greater than 100 µM. `COc1ccc(/C(C)=N/NC(=S)N(C)C)c(O)c1` was tested, and the TGI was greater than 100 µM. Molecule `CCCCCC(C(O)C#N)C(O)(C(F)(F)F)C(F)(F)F` (configuration not stated) has a TGI greater than 10 µM. In the case of `CC/C=C\C/C=C\C/C=C\CCCCCCCC(=O)OC(COC(=O)CCCCCCCCCCCCCCCCC)COC1OC(CO)C(O)C(O)C1O` (configuration not stated), the TGI is reported as greater than 25 µM. For `CC12CCC(C/C1=N\NC(N)=O)C2(C)C` (configuration not stated), the TGI was greater than 100 µM. With `COC(=O)C1=C(C)N2[C@H](C(=O)O)CS[C@@]2(C)[C@H](C(=O)OC)[C@H]1c1cccc([N+](=O)[O-])c1` the TGI was greater than 100 µM. In the case of `COC(=O)C(CCCCNC(=O)CNC(=O)OCc1ccccc1)NC(=O)C(CCCCNC(=O)CNC(=O)OCc1ccccc1)NC(=O)OCc1ccccc1` (configuration not stated), the TGI is reported as greater than 100 µM.

Each molecule was assayed on IGROV1 ovarian (assay: growth of human tumour cells (NCI), 48 h).
`C[C@@H]1C(=O)CC2(O)[C@@]13C[C@@H](OC(=O)[C@@H]3O)[C@@H](C)[C@@]21COC1=O` (some centres not stated) was tested, and the TGI was greater than 100 µM. In the case of `COc1ccc(/C(C)=N/NC(=S)N(C)C)c(O)c1`, the TGI is reported as 23.2 µM. Molecule `CCCCCC(C(O)C#N)C(O)(C(F)(F)F)C(F)(F)F` (configuration not stated) has a TGI greater than 10 µM. Work on `CC/C=C\C/C=C\C/C=C\CCCCCCCC(=O)OC(COC(=O)CCCCCCCCCCCCCCCCC)COC1OC(CO)C(O)C(O)C1O` (configuration not stated) yielded a TGI greater than 25 µM. `CC12CCC(C/C1=N\NC(N)=O)C2(C)C` (configuration not stated) showed a TGI greater than 100 µM. Molecule `COC(=O)C1=C(C)N2[C@H](C(=O)O)CS[C@@]2(C)[C@H](C(=O)OC)[C@H]1c1cccc([N+](=O)[O-])c1` has a TGI greater than 100 µM.

These molecules were tested on K-562 leukemia (assay: growth of human tumour cells (NCI), 48 h).
Molecule `CCN(CC)C(=S)SS(=O)(=O)c1ccc(C)cc1` has a TGI greater than 100 µM. For `C[C@@H]1C(=O)CC2(O)[C@@]13C[C@@H](OC(=O)[C@@H]3O)[C@@H](C)[C@@]21COC1=O` (some centres not stated), the TGI was greater than 100 µM. In the case of `CCCCCC(C(O)C#N)C(O)(C(F)(F)F)C(F)(F)F` (configuration not stated), the TGI is reported as greater than 10 µM. `CC/C=C\C/C=C\C/C=C\CCCCCCCC(=O)OC(COC(=O)CCCCCCCCCCCCCCCCC)COC1OC(CO)C(O)C(O)C1O` (configuration not stated) gave a TGI greater than 25 µM. `CC12CCC(C/C1=N\NC(N)=O)C2(C)C` (configuration not stated) showed a TGI greater than 100 µM. `COC(=O)C1=C(C)N2[C@H](C(=O)O)CS[C@@]2(C)[C@H](C(=O)OC)[C@H]1c1cccc([N+](=O)[O-])c1` gave a TGI greater than 100 µM. With `COC(=O)C(CCCCNC(=O)CNC(=O)OCc1ccccc1)NC(=O)C(CCCCNC(=O)CNC(=O)OCc1ccccc1)NC(=O)OCc1ccccc1` (configuration not stated) the TGI was greater than 100 µM.

Each molecule was assayed on KM12 colon (assay: growth of human tumour cells (NCI), 48 h).
Molecule `CCN(CC)C(=S)SS(=O)(=O)c1ccc(C)cc1` has a TGI of 30.6 µM. For `C[C@@H]1C(=O)CC2(O)[C@@]13C[C@@H](OC(=O)[C@@H]3O)[C@@H](C)[C@@]21COC1=O` (some centres not stated), the TGI was greater than 100 µM. For `COc1ccc(/C(C)=N/NC(=S)N(C)C)c(O)c1`, the TGI was greater than 100 µM. With `CCCCCC(C(O)C#N)C(O)(C(F)(F)F)C(F)(F)F` (configuration not stated) the TGI was greater than 10 µM. `CC/C=C\C/C=C\C/C=C\CCCCCCCC(=O)OC(COC(=O)CCCCCCCCCCCCCCCCC)COC1OC(CO)C(O)C(O)C1O` (configuration not stated) gave a TGI greater than 25 µM. `CC12CCC(C/C1=N\NC(N)=O)C2(C)C` (configuration not stated) was tested, and the TGI was greater than 100 µM. Molecule `COC(=O)C1=C(C)N2[C@H](C(=O)O)CS[C@@]2(C)[C@H](C(=O)OC)[C@H]1c1cccc([N+](=O)[O-])c1` has a TGI greater than 100 µM.

These molecules were tested on LOX IMVI melanoma (assay: growth of human tumour cells (NCI), 48 h).
For `CCN(CC)C(=S)SS(=O)(=O)c1ccc(C)cc1`, the TGI was 36.1 µM. `C[C@@H]1C(=O)CC2(O)[C@@]13C[C@@H](OC(=O)[C@@H]3O)[C@@H](C)[C@@]21COC1=O` (some centres not stated) showed a TGI greater than 100 µM. `COc1ccc(/C(C)=N/NC(=S)N(C)C)c(O)c1` was tested, and the TGI was 12.4 µM. Molecule `CCCCCC(C(O)C#N)C(O)(C(F)(F)F)C(F)(F)F` (configuration not stated) has a TGI greater than 10 µM. `CC/C=C\C/C=C\C/C=C\CCCCCCCC(=O)OC(COC(=O)CCCCCCCCCCCCCCCCC)COC1OC(CO)C(O)C(O)C1O` (configuration not stated) gave a TGI greater than 25 µM. `CC12CCC(C/C1=N\NC(N)=O)C2(C)C` (configuration not stated) showed a TGI greater than 100 µM. `COC(=O)C(CCCCNC(=O)CNC(=O)OCc1ccccc1)NC(=O)C(CCCCNC(=O)CNC(=O)OCc1ccccc1)NC(=O)OCc1ccccc1` (configuration not stated) gave a TGI greater than 100 µM.

What follows are molecules tested on M14 melanoma (assay: growth of human tumour cells (NCI), 48 h).
Molecule `CCN(CC)C(=S)SS(=O)(=O)c1ccc(C)cc1` has a TGI of 28.2 µM. Work on `C[C@@H]1C(=O)CC2(O)[C@@]13C[C@@H](OC(=O)[C@@H]3O)[C@@H](C)[C@@]21COC1=O` (some centres not stated) yielded a TGI greater than 100 µM. For `COc1ccc(/C(C)=N/NC(=S)N(C)C)c(O)c1`, the TGI was greater than 100 µM. Work on `CCCCCC(C(O)C#N)C(O)(C(F)(F)F)C(F)(F)F` (configuration not stated) yielded a TGI greater than 10 µM. `CC/C=C\C/C=C\C/C=C\CCCCCCCC(=O)OC(COC(=O)CCCCCCCCCCCCCCCCC)COC1OC(CO)C(O)C(O)C1O` (configuration not stated) gave a TGI greater than 25 µM.
